Measurements: patent US11865098B1, “Methods and compositions for treating excessive sleepiness” (Axsome Malta Ltd., priority 2017, dated 2024)

Tests used:
Assay type in all cases: in vivo, human
[1] = system: adults with OSA and excessive sleepiness; assay: PGI-C and CGI-C, phase 3 randomized withdrawal study in OSA; conditions: Double-Blind Withdrawal Phase, switched to placebo compared with stayed on APC
Procedure: The study was a double-blind, placebo-controlled, enriched, randomized withdrawal design (FIG. 1). In the Titration Phase (weeks 1-2), patients started on a once-daily dose of APC 75 mg and could be titrated up or down every 3 days to reach a maximum tolerated dose of APC 75, 150, or 300 mg. In the Stable-Dose Phase (weeks 3-4), patients continued to receive the dose that they were titrated to in the Titration Phase for 2 weeks. […]
Efficacy was based on change from week 4 to 6 on the co-primary endpoints of MWT and ESS and percentage of patients reported as improved on the PGI-C and Clinician Global Impression of Change (CGI-C); assessed on a 7-point scale from 1 (very much improved) to 7 (very much worse).
MWT and ESS data were analyzed using a mixed-effect model repeated measures (MMRM); PGI-C and CGI-C were evaluated using a chi-square test. […] Safety and tolerability were evaluated based on treatment-emergent adverse events (TEAEs), vital signs, and laboratory values.

[2] = system: adult patients with OSA and ES; assay: PGI-C, 12-week placebo-controlled parallel study in OSA; conditions: 37.5, 75, 150, 300 mg; week 12; listed as APC
Procedure: The study was a 12-week, double-blind, placebo-controlled, parallel design study as described in greater detail in Example 1 (Schweitzer et al., Sleep 40(Abstract Supplement):A237. Abstract 0641 (2017)). Patients were randomized (1:1:2:2:2) to APC 37.5, 75, 150, 300 mg, or placebo for 12 weeks, and were stratified by adherence or non-adherence with primary OSA therapy (adherent definition was use for ≥4 hours per night on >70% of nights). Two patient-reported measures were included as secondary efficacy outcomes to evaluate the effects of APC on functional status and work productivity and activity impairment at baseline and weeks 1, 4, 8, and 12. The Functional Outcomes of Sleep questionnaire short version (FOSQ-10) (Chasens et al., Sleep 32(7):915 (2009)) evaluated the effects of ES on functioning. The Work Productivity and Activity Impairment questionnaire for Specific Health Problems (WPAI:SHP) (Reilly et al., Pharmacoeconomics 4(5):353 (1993); Reilly, Work Productivity and Activity Impairment Questionnaire: Specific Health Problem V2.0 (WPAI: SHP). www.reillyassociates.net/WPAI_SHP) evaluated work productivity impairment among employed patients and overall activity impairment outside of work among all patients for the past 7 days. […]

[3] = system: adult patients with OSA and ES; assay: FOSQ-10, 12-week parallel study in OSA
Procedure: The study was a 12-week, double-blind, placebo-controlled, parallel design study as described in greater detail in Example 1 (Schweitzer et al., Sleep 40(Abstract Supplement):A237. Abstract 0641 (2017)). Patients were randomized (1:1:2:2:2) to APC 37.5, 75, 150, 300 mg, or placebo for 12 weeks, and were stratified by adherence or non-adherence with primary OSA therapy (adherent definition was use for ≥4 hours per night on >70% of nights). Two patient-reported measures were included as secondary efficacy outcomes to evaluate the effects of APC on functional status and work productivity and activity impairment at baseline and weeks 1, 4, 8, and 12. The Functional Outcomes of Sleep questionnaire short version (FOSQ-10) (Chasens et al., Sleep 32(7):915 (2009)) evaluated the effects of ES on functioning. The Work Productivity and Activity Impairment questionnaire for Specific Health Problems (WPAI:SHP) (Reilly et al., Pharmacoeconomics 4(5):353 (1993); Reilly, Work Productivity and Activity Impairment Questionnaire: Specific Health Problem V2.0 (WPAI: SHP). www.reillyassociates.net/WPAI_SHP) evaluated work productivity impairment among employed patients and overall activity impairment outside of work among all patients for the past 7 days. Four outcomes are available from the WPAI:SHP: Absenteeism (percent work time missed due to health); Presenteeism (percent impairment while working due to health); Percent overall work impairment (calculated from absenteeism and presenteeism); and Percent activity impairment due to health. The FOSQ-10 was evaluated as change over time compared with placebo (least squares (LS) mean); the 4 WPAI outcomes were evaluated at week 12 compared to placebo. Efficacy analyses were based on the modified intent-to-treat population (mITT) and there was no multiplicity adjustment for the FOSQ-10 or WPAI:SHP. Safety and tolerability were assessed based on treatment-emergent adverse events (TEAEs), vital signs, electrocardiogram test, physical exams, Columbia-Suicide Severity Rating Scale, and laboratory tests in the safety population.

SMILES: NC(=O)OC[C@H](N)Cc1ccccc1 [JZP-110, (R)-2-amino-3-phenylpropyl carbamate]
- Worsening of overall condition on the PGI-C and CGI-C [1]: Significantly higher percentages of patients who were switched to placebo experienced a worsening of their overall condition
- Key secondary endpoint, PGI-C [2]: met at all doses except for APC 37.5 mg
- FOSQ-10 scores at week 12 ([3]; 37.5 to 300 mg, mITT): dose dependently increased FOSQ-10 scores
- FOSQ-10, time at which improvements were observed ([3]; 150 and 300 mg doses): as early as week 1
- FOSQ-10 scores at week 12, effect relative to placebo ([3]; 150 and 300 mg doses): statistically significant effects
